In one assay the test system is interferon (α). As to the kind of experiment: Cytokine Induction in Human Cells: interferon (α) by ELISA. The format is cell-based. To be noted: PBMC; human PBMCs, incubated 18 to 24 hours, lowest concentration found to induce interferon. The text has this: (§1) An in vitro human blood cell system was used to assess cytokine induction by compounds of the invention. Activity is based on the measurement of interferon and tumor necrosis factor (α) (IFN and TNF, respectively) secreted into culture media as described by Testerman et. al. In “Cytokine Induction by the Immunomodulators Imiquimod and S-27609”, Journal of Leukocyte Biology, 58, 365–372 (September, 1995).
(§2) Whole blood is collected by venipuncture into EDTA vacutainer tubes from healthy human donors. Peripheral blood mononuclear cells (PBMCs) are separated from whole blood by density gradient centrifugation using Histopaque®-1077 (Sigma Chemicals, St. Louis, Mo.). The PBMCs are suspended at 3–4×10^6 cells/mL in RPMI 1640 medium containing 10% fetal bovine serum, 2 mM L-glutamine and 1% penicillin/streptomycin solution (RPMI complete). The PBMC suspension is added to 48 well flat bottom sterile tissue culture plates (Costar, Cambridge, Mass. or Becton Dickinson Labware, Lincoln Park, N.J.) containing an equal volume of RPMI complete media containing test compound.
(§3) The compounds are solubilized in dimethyl sulfoxide (DMSO). The DMSO concentration should not exceed a final concentration of 1% for addition to the culture wells.
(§4) The solution of test compound is added at 60 μM to the first well containing RPMI complete and serial (three fold or ten fold) dilutions are made. The PBMC suspension is then added to the wells in an equal volume, bringing the test compound concentrations to the desired range. The final concentration of PBMC suspension is 1.5–2×10^6 cells/mL. The plates are covered with sterile plastic lids, mixed gently and then incubated for 18 to 24 hours at 37° C. in a 5% carbon dioxide atmosphere.
(§5) Following incubation the plates are centrifuged for 5–10 minutes at 1000 rpm (˜200×g) at 4° C. The cell culture supernatant is removed with a sterile polypropylene pipet and transferred to sterile polypropylene tubes. Samples are maintained at −30 to −70° C. until analysis. The samples are analyzed for interferon (α) and tumor necrosis factor (α) by ELISA
Interferon (α) concentration is determined by ELISA using a Human Multi-Species kit from PBL Biomedical Laboratories, New Brunswick, N.J.
(§6) The table below lists the lowest concentration found to induce interferon and the lowest concentration found to induce tumor necrosis factor for each compound.
On the technique in general: In an ELISA, binding on a coated surface is turned into a signal by an enzyme label.

Assay [1] deals with tumor necrosis factor (α). As to the kind of experiment: Cytokine Induction in Human Cells: tumor necrosis factor (α) by ELISA. The format is cell-based. To be noted: PBMC; human PBMCs, incubated 18 to 24 hours, lowest concentration found to induce tumor necrosis factor.
Excerpt: as §1, §2, §3, §4, §5
Tumor necrosis factor (α) (TNF) concentration is determined using ELISA kits available from Genzyme, Cambridge, Mass.; R&D Systems, Minneapolis, Minn.; or Pharmingen, San Diego, Calif.
as §6

Counter-ions that a name gives are not always drawn. Some results are limits rather than exact numbers.

Broadly, the minimal effective concentration is the smallest amount tested that counted as effective. A higher minimal effective concentration goes with weaker potency. For `COCCc1nc2c(N)nc3ccccc3c2n1CCCNC(=O)Nc1ccccc1` [Example 161, N-{3-[4-amino-2-(2-methoxyethyl)-1H-imidazo[4,5-c]quinolin-1-yl]propyl}-N′-phenylurea], the minimal effective concentration (in the assay on interferon (α); in assay [1]) was 0.01 µM in each case.

On to `COc1ccc(NC(=O)NCCCCn2cnc3c(N)nc4ccccc4c32)cc1` [Example 37], for which the results for the minimal effective concentration (with interferon (α); in assay [1]) were 1.11 µM and 10 µM, respectively.

For `COCCc1nc2c(N)nc3ccccc3c2n1CCCCNC(=O)N(C)c1ccccc1` [Example 120], the results for the minimal effective concentration (in the assay with interferon (α); in assay [1]) were 0.0001 µM and 0.01 µM, respectively.

As for `CC(=O)c1ccc(NC(=O)NCCCCn2cnc3c(N)nc4ccccc4c32)cc1` [Example 51], the minimal effective concentration (in the assay with interferon (α); in assay [1]) was 30 µM throughout.

For `CCNC(=O)NCCCCn1c(CCOC)nc2c(N)nc3ccccc3c21` [Example 101], the minimal effective concentration in the assay on interferon (α) amounted to 0.01 µM; in assay [1] it was 1 µM.

With `Nc1nc2ccccc2c2c1ncn2CCCCNC(=O)Nc1cc(C(F)(F)F)ccc1Cl` [Example 31], the minimal effective concentration is more than 30 µM with interferon (α) and 10 µM in assay [1].

Take `Nc1nc2ccccc2c2c1ncn2CCCCNC(=O)OCC1c2ccccc2-c2ccccc21` [Example 4, 9H-9-Fluorenylmethyl N-[4-(4-amino-1H-imidazo[4,5-c]quinolin-1-yl)butyl]carbamate]: the minimal effective concentration (in the assay with interferon (α); in assay [1]) was more than 30 µM each time.

Take `CCCCCCCNC(=O)NCCCCn1cnc2c(N)nc3ccccc3c21` [Example 22]: the minimal effective concentration in the assay on interferon (α) is more than 30 µM; in assay [1] it was 10 µM.

With `Nc1nc2ccccc2c2c1ncn2CCCCNC(=O)NCCc1ccccc1` [Example 36], the minimal effective concentration with interferon (α) was 1.11 µM; in assay [1] it was 10 µM.

On to `CCCCc1nc2c(N)nc3ccccc3c2n1CCNC(=O)NS(=O)(=O)c1ccc(F)cc1` [Example 139], for which the minimal effective concentration (with interferon (α); in assay [1]) was more than 10 µM throughout.

For the molecule `Nc1nc2ccccc2c2c1ncn2CCCCNC(=O)Nc1ccccc1C(F)(F)F` [Example 46], the figures for the minimal effective concentration (with interferon (α); in assay [1]) were 1.11 µM and 3.33 µM, respectively.

As to `CCCCc1nc2c(N)nc3c(c2n1CCCCNC(=O)NC12CC4CC(CC(C4)C1)C2)CCCC3` [Example 132], the minimal effective concentration in the assay on interferon (α) is 0.01 µM; in assay [1], 1 µM.

For the molecule `CCCCc1nc2c(N)nc3ccccc3c2n1CCCCNC(=O)Nc1ccccc1Cl` [Example 86], the minimal effective concentration with interferon (α) came out at 0.1 µM; in assay [1] it was 1 µM.

Consider `Nc1nc2ccccc2c2c1ncn2CCCCNC(=O)Nc1cc(Cl)cc(Cl)c1` [Example 29], for which the minimal effective concentration is more than 30 µM in the assay on interferon (α) and 10 µM in assay [1].

Take `CCCCOc1ccc(NC(=O)NCCCCn2cnc3c(N)nc4ccccc4c32)cc1` [Example 21]: the minimal effective concentration (with interferon (α); in assay [1]) was more than 30 µM each time.

In the case of `CCCCCc1nc2c(N)nc3c(c2n1CCCCNC(=O)N1CCOCC1)CCCC3` [Example 172, N-[4-(4-amino-2-pentyl-6,7,8,9-tetrahydro-1H-imidazo[4,5-c]quinolin-1-yl)butyl]morpholine-4-carboxamide hydrochloride], the results for the minimal effective concentration (in the assay with interferon (α); in assay [1]) were 0.01 µM and 0.37 µM, respectively.

For the molecule `COCCc1nc2c(N)nc3ccccc3c2n1CCCCNC(=O)N1CCCC1` [Example 122], the results for the minimal effective concentration (in the assay with interferon (α); in assay [1]) were 0.001 µM and 1 µM, respectively.

Turning to `CCCCCCNC(=O)NCCCCn1cnc2c(N)nc3ccccc3c21` [Example 25], the minimal effective concentration in the assay on interferon (α) was 3.33 µM; in assay [1] it was more than 30 µM.

As for `Nc1nc2ccccc2c2c1ncn2CCCCNC(=O)Nc1ccc(Oc2ccccc2)cc1` [Example 33], the minimal effective concentration (in the assay with interferon (α); in assay [1]) was more than 30 µM in each case.

`COCCc1nc2c(N)nc3ccccc3c2n1CCCCNC(=O)OCc1ccccc1` [Example 142, N-{4-[4-Amino-2-(2-methoxyethyl)-1H-imidazo[4,5-c]quinolin-1-yl]butyl}carbamate Trifluoroacetate]: the minimal effective concentration in the assay with interferon (α) amounted to 0.0001 µM; in assay [1], 0.1 µM.

Regarding `COCCc1nc2c(N)nc3ccccc3c2n1CCCCNC(=O)Nc1ccccc1Cl` [Example 112], the minimal effective concentration with interferon (α) is 0.0001 µM; in assay [1], 0.1 µM.

`Cc1cc(C)c(NC(=O)NCCCCn2cnc3c(N)nc4ccccc4c32)cc1C` [Example 38]: the minimal effective concentration (with interferon (α); in assay [1]) was more than 30 µM in each case.

With `CCCCc1nc2c(N)nc3ccccc3c2n1CCNC(=O)NCCC` [Example 56], the minimal effective concentration (with interferon (α); in assay [1]) was 1 µM throughout.

`CCCCc1nc2c(N)nc3ccccc3c2n1CCCNC(=O)OC(C)(C)C` [Example 147, tert-butyl 3-(4-amino-2-butiyl-1H-imidazo[4,5-c]quinolin-1-yl)propylcarbamate]: the results for the minimal effective concentration (with interferon (α); in assay [1]) were 0.01 µM and 0.12 µM, respectively.

Turning to `Nc1nc2ccccc2c2c1ncn2CCCCNC(=O)Nc1ccc(Br)cc1` [Example 42], the minimal effective concentration (in the assay on interferon (α); in assay [1]) was more than 30 µM each time.

Turning to `Nc1nc2ccccc2c2c1ncn2CCCCNC(=O)Nc1ccc([N+](=O)[O-])cc1` [Example 17], the minimal effective concentration in the assay on interferon (α) was more than 30 µM; in assay [1], 30 µM.

Regarding `COCCc1nc2c(N)nc3ccccc3c2n1CCCCNC(=O)Nc1cccc(F)c1` [Example 107], the minimal effective concentration in the assay with interferon (α) was 0.0001 µM; in assay [1] it was 1 µM.

For `COCCc1nc2c(N)nc3ccccc3c2n1CCCCNC(=O)Nc1cccc(C(F)(F)F)c1` [Example 116], the minimal effective concentration in the assay with interferon (α) is 0.0001 µM; in assay [1] it was 1 µM.

With `COCCc1nc2c(N)nc3ccccc3c2n1CCCCNC(=S)Nc1ccc(N(C)C)c2ccccc12` [Example 126], the results for the minimal effective concentration (in the assay on interferon (α); in assay [1]) were 0.0001 µM and 1 µM, respectively.

For the molecule `CCCCc1nc2c(N)nc3ccccc3c2n1CCCCNC(=O)NCc1ccc(C)cc1` [Example 84], the minimal effective concentration in the assay with interferon (α) stood at 0.1 µM; in assay [1], 1 µM.

Take `Nc1nc2ccccc2c2c1ncn2CCCCNC(=O)NCc1ccccc1` [Example 35]: the minimal effective concentration in the assay on interferon (α) was 1.11 µM; in assay [1], 10 µM.

Take `CCCNC(=O)NCCCCn1c(CCOC)nc2c(N)nc3ccccc3c21` [Example 102]: the minimal effective concentration in the assay on interferon (α) is 0.001 µM; in assay [1], 1 µM.

As for `Nc1nc2ccccc2c2c1ncn2CCCCNC(=O)Nc1ccccc1-c1ccccc1` [Example 45], the minimal effective concentration with interferon (α) is 3.33 µM; in assay [1] it was more than 30 µM.

For `COCCc1nc2c(N)nc3ccccc3c2n1CCCCNC(=O)Nc1cccc(C)c1` [Example 106], the figures for the minimal effective concentration (in the assay on interferon (α); in assay [1]) were 0.0001 µM and 1 µM, respectively.

With `N#Cc1cccc(NC(=O)NCCCCn2cnc3c(N)nc4ccccc4c32)c1` [Example 28], the minimal effective concentration in the assay on interferon (α) came to 1.11 µM; in assay [1], 3.33 µM.

Regarding `CCCCc1nc2c(N)nc3ccccc3c2n1CCCCNC(=O)NCc1ccc(OC)cc1` [Example 89], the minimal effective concentration with interferon (α) was 0.1 µM; in assay [1], 10 µM.

Take `Nc1nc2ccccc2c2c1ncn2CCCCNC(=O)Nc1ccccc1` [Example 16]: the results for the minimal effective concentration (in the assay on interferon (α); in assay [1]) were 1.11 µM and 10 µM, respectively.

As to `CCCCNC(=O)NCCCCn1c(CCOC)nc2c(N)nc3ccccc3c21` [Example 103], the minimal effective concentration in the assay with interferon (α) is 0.0001 µM; in assay [1], 0.1 µM.

For `COC(=O)c1ccccc1NC(=O)NCCCCn1cnc2c(N)nc3ccccc3c21` [Example 43], the minimal effective concentration (with interferon (α); in assay [1]) was more than 30 µM each time.

`CCCCc1ccc(NC(=O)NCCCCn2cnc3c(N)nc4ccccc4c32)cc1` [Example 34]: the minimal effective concentration (in the assay with interferon (α); in assay [1]) was more than 30 µM in each case.

For `CCCNC(=O)NCCCCn1cnc2c(N)nc3ccccc3c21` [Example 26], the minimal effective concentration in the assay on interferon (α) was 10 µM; in assay [1] it was more than 30 µM.
